Measured values: PMC11409717, “Three separate pathways in Rhizobium leguminosarum maintain phosphatidylcholine biosynthesis, which is required for symbiotic nitrogen fixation with clover” (Applied and Environmental Microbiology, 2024)

Experiments:
Pcs = molecular target: T1, Pcs (Rhizobium redzepovicii, UniProt A0AAW8P1U5); assay: TLC of lipids from expressing E. coli cells, CuSO4 stain; type: cell-based; conditions: endogenous CDP-DAG, 30 °C, 20 h
T1 construct: pET28b (NdeI/XhoI), expressed in E. coli BL21 (DE3) cells, not purified
T1 sequence (A0AAW8P1U5 1-242): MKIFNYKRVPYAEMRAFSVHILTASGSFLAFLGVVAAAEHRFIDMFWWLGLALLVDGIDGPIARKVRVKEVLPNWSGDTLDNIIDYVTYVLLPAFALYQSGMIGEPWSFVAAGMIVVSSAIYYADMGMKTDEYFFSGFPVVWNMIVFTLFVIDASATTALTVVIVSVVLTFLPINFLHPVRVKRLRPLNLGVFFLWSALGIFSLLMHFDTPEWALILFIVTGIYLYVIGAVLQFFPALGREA

PmtR1 = molecular target: T2, PmtR1 (Rhizobium leguminosarum, UniProt A0A2Z4YNE2); assay: in vitro methylation, lipid extraction and TLC with CuSO4 stain; type: biochemical; conditions: SAM; […] KH2PO4 pH […]; […] Triton X-100; […] °C, […] h; with or without PG or CL
T2 construct: gene DLJ82_4359; His-tagged, pET24b, E. coli BL21 (DE3), Ni-IDA and SEC; 23-25 kDa
T2 sequence (A0A2Z4YNE2 1-217): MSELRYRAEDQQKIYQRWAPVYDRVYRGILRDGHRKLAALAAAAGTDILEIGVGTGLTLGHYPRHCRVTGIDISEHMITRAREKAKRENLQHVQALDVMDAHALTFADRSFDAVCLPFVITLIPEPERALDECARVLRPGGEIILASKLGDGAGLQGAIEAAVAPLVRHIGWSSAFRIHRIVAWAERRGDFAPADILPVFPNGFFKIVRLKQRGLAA

PmtS2 = molecular target: T3, PmtS2 (Rhizobium leguminosarum, UniProt A0A2Z4YJT5); assay: as above; type: biochemical; conditions: SAM; […] KH2PO4 pH […]; […] Triton X-100; […] °C, […] h; with or without PG or CL
T3 construct: gene DLJ82_3306; His-tagged, synthetic gene in pET28b, E. coli BL21 (DE3), Ni-IDA and SEC, one unknown co-purifying protein; 23-25 kDa
T3 sequence (A0A2Z4YJT5 1-199): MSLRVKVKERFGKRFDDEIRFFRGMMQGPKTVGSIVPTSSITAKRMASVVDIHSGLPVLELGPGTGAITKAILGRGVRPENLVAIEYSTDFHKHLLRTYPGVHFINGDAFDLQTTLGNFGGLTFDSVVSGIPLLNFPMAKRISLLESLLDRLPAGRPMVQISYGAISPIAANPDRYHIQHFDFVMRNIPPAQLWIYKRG

PmtS1 = molecular target: T4, PmtS1 (Rhizobium leguminosarum, UniProt A0A2Z4YHW5); assay: as above; type: biochemical; conditions: SAM; […] KH2PO4 pH […]; […] Triton X-100; […] °C, […] h; with or without PG or CL
T4 construct: gene DLJ82_3449; His-tagged, pET24b, E. coli BL21 (DE3), Ni-IDA and buffer exchange only (partly pure); 23-25 kDa
T4 sequence (A0A2Z4YHW5 1-223): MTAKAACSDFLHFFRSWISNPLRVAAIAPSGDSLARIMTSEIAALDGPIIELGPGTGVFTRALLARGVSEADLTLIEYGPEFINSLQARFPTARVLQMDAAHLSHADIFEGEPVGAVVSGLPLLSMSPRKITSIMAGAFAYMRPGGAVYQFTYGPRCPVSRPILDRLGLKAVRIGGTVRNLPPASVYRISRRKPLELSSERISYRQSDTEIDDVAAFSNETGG

SMILES | in vitro methylation, lipid extraction and TLC with CuSO4 stain (PmtR1) | in vitro methylation, lipid extraction and TLC with CuSO4 stain (PmtS2) | other results
C[N+](C)(C)CCO [choline] |  |  | TLC of lipids from expressing E. coli cells, CuSO4 stain (Pcs; M9 minimal medium with 1 mM choline): PC formation was restored upon choline supplementation (Fig. 2B)
CCCCCCCC/C=C\CCCCCCCC(=O)OC[C@H](COP(=O)(O)OCCN(C)C)OC(=O)CCCCCCC/C=C\CCCCCCCC [DMPE, 1,2-dioleoyl-sn-glycero-3-phosphoethanolamine-N,N-dimethyl] | DMPE proved to be the most efficiently used substrate for PmtR1 | DMPE was methylated to PC, and this activity was stimulated by PG | 
CN(C)CCO [DMEA, 2-(dimethylamino)ethanol] |  |  | TLC of lipids from expressing E. coli cells, CuSO4 stain (Pcs; M9 minimal medium with 1 mM DMEA): effectively converting these methylated substrates into MMPE and DMPE (Fig. 2B)
CCCCCCCC/C=C\CCCCCCCC(=O)OC[C@H](COP(=O)(O)OCCNC)OC(=O)CCCCCCC/C=C\CCCCCCCC [MMPE, 1,2-dioleoyl-sn-glycero-3-phosphoethanolamine-N-methyl] | When MMPE was employed as a substrate, only barely detectable amounts of PC were synthesized |  | 
CCCCCCCC/C=C\CCCCCCCC(=O)OC[C@H](COP(=O)(O)OCCN)OC(=O)CCCCCCC/C=C\CCCCCCCC [PE, 1,2-dioleoyl-sn-glycero-3-phosphoethanolamine] |  | PE was methylated to MMPE and small amounts of DMPE and PC | in vitro methylation, lipid extraction and TLC with CuSO4 stain (PmtS1): the conversion of only PE to MMPE by the purified protein (Fig. 4A)
